# Source: US20240343704A1, “HALO-SUBSTITUTED AMINO PYRIDINE COMPOUNDS AS INHIBITORS OF THE HAEMATOPOIETIC PROGENITOR KINASE 1 (HPK1)” (priority 2021, published 2024)
# Biological target: T1, Recombinant (1-346) HPK1 (h) (Homo sapiens, UniProt Q92918)
# T1 construct: Recombinant (1-346) HPK1 (h) is incubated with 8 mM MOPS pH 7.0
# T1 sequence (Q92918 1-346): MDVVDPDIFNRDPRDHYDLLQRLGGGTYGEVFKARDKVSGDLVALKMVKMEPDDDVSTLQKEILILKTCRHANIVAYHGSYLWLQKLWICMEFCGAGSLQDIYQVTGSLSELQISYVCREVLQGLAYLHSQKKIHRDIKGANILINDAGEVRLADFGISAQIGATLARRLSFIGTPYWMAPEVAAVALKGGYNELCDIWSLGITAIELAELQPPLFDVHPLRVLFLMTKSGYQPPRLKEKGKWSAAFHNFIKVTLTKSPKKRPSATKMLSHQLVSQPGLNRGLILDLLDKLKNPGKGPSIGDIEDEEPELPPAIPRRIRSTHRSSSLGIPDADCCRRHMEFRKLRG
# Assay: HPK1 Human STE Kinase Enzymatic Radiometric Assay
# Assay type: biochemical
# Details: read-out: HPK1 IC50 nM Range*
# Description: A stock solution of 10 mM of test compound is prepared in DMSO. The compound plate was prepared by 3-fold and 9-point serial dilutions. […] The reaction is initiated by The addition of the Mg/ATP mix. After incubation for 40 minutes at RT, the reaction is stopped by the addition of phosphoric acid to a concentration of 0.5%.
row,IC50,Compound
1,0.1 to 10 nM,"Cc1c[nH]c(=O)c2ccc(-c3cc(-c4ccc(N5CCN(C6CCC6)CC5)cc4)c(F)nc3N)cc12 [I-545, 6-(2-amino-5-(4-(4-cyclobutylpiperazin-1-yl)phenyl)-6-fluoropyridin-3-yl)-4-methylisoquinolin-1(2H)-one]"
2,0.1 to 10 nM,"Nc1nc(F)c(-c2ccc(N3CCN(C4CCC4)CC3)cc2)cc1-c1ccc2c(=O)[nH]cc(F)c2c1 [I-546, 6-(2-amino-5-(4-(4-cyclobutylpiperazin-1-yl)phenyl)-6-fluoropyridin-3-yl)-4-fluoroisoquinolin-1(2H)-one]"
3,0.1 to 10 nM,"CC(C)N1CCN(c2ccc(-c3cc(-c4cc5c(F)c[nH]c(=O)c5cc4F)c(N)nc3F)cc2)CC1 [I-547, 6-(2-amino-6-fluoro-5-(4-(4-isopropylpiperazin-1-yl)phenyl)pyridin-3-yl)-4,7-difluoroisoquinolin-1(2H)-one]"
4,11 to 100 nM,"Nc1nc(F)c(-c2ccc(N3CCOCC3)c(CN3CCC3)c2)cc1-c1ccc2c(c1)CCNC2=O [I-549, 6-(2-amino-5-(3-(azetidin-1-ylmethyl)-4-morpholinophenyl)-6-fluoropyridin-3-yl)-3,4-dihydroisoquinolin-1(2H)-one]"
5,11 to 100 nM,"Nc1nc(F)c(-c2ccc(N3CCOCC3)c(CN3CCC3)c2)cc1-c1cc2c(cc1F)C(=O)NCC2 [I-550, 6-(2-amino-5-(3-(azetidin-1-ylmethyl)-4-morpholinophenyl)-6-fluoropyridin-3-yl)-7-fluoro-3,4-dihydroisoquinolin-1(2H)-one]"
6,11 to 100 nM,"CCN(C)Cc1cc(-c2cc(-c3cc4c(cc3F)C(=O)NCC4)c(N)nc2F)ccc1C1CCOCC1 [I-552, 6-(2-amino-5-(3-((ethyl(methyl)amino)methyl)-4-(tetrahydro-2H-pyran-4-yl)phenyl)-6-fluoropyridin-3-yl)-7-fluoro-3,4-dihydroisoquinolin-1(2H)-one]"
7,0.1 to 10 nM,"COCCN(C)Cc1cc(-c2cc(-c3ccc4c(c3)CCNC4=O)c(N)nc2F)ccc1N1CCOCC1 [I-553, 6-(2-amino-6-fluoro-5-(3-(((2-methoxyethyl)(methyl)amino)methyl)-4-morpholinophenyl)pyridin-3-yl)-3,4-dihydroisoquinolin-1(2H)-one]"
8,11 to 100 nM,"COCCN(C)Cc1cc(-c2cc(-c3cc4c(cc3F)C(=O)NCC4)c(N)nc2F)ccc1N1CCOCC1 [I-554, 6-(2-amino-6-fluoro-5-(3-(((2-methoxyethyl)(methyl)amino)methyl)-4-morpholinophenyl)pyridin-3-yl)-7-fluoro-3,4-dihydroisoquinolin-1(2H)-one]"
9,11 to 100 nM,"CN(C)Cc1cc(-c2cc(-c3ccc4c(c3)CCNC4=O)c(N)nc2F)ccc1OCC(F)F [I-555, 6-(2-amino-5-(4-(2,2-difluoroethoxy)-3-((dimethylamino)methyl)phenyl)-6-fluoropyridin-3-yl)-3,4-dihydroisoquinolin-1(2H)-one]"
10,11 to 100 nM,"CN(C)Cc1cc(-c2cc(-c3cc4c(cc3F)C(=O)NCC4)c(N)nc2F)ccc1OCC(F)F [I-556, 6-(2-amino-5-(4-(2,2-difluoroethoxy)-3-((dimethylamino)methyl)phenyl)-6-fluoropyridin-3-yl)-7-fluoro-3,4-dihydroisoquinolin-1(2H)-one]"
11,11 to 100 nM,"Nc1nc(F)c(-c2ccc(C3CCOCC3)c(CN3CCCC3)c2)cc1-c1ccc2c(c1)CCNC2=O [I-557, 6-(2-amino-6-fluoro-5-(3-(pyrrolidin-1-ylmethyl)-4-(tetrahydro-2H-pyran-4-yl)phenyl)pyridin-3-yl)-3,4-dihydroisoquinolin-1(2H)-one]"
12,11 to 100 nM,"Nc1nc(F)c(-c2ccc(C3CCOCC3)c(CN3CCCC3)c2)cc1-c1cc2c(cc1F)C(=O)NCC2 [I-558, 6-(2-amino-6-fluoro-5-(3-(pyrrolidin-1-ylmethyl)-4-(tetrahydro-2H-pyran-4-yl)phenyl)pyridin-3-yl)-7-fluoro-3,4-dihydroisoquinolin-1(2H)-one]"
13,11 to 100 nM,"Nc1nc(F)c(-c2ccc(N3CCOCC3)c(CN3CCCCC3)c2)cc1-c1ccc2c(c1)CCNC2=O [I-559, 6-(2-amino-6-fluoro-5-(4-morpholino-3-(piperidin-1-ylmethyl)phenyl)pyridin-3-yl)-3,4-dihydroisoquinolin-1(2H)-one]"
14,11 to 100 nM,"Nc1nc(F)c(-c2ccc(N3CCOCC3)c(CN3CCCCC3)c2)cc1-c1cc2c(cc1F)C(=O)NCC2 [I-560, 6-(2-amino-6-fluoro-5-(4-morpholino-3-(piperidin-1-ylmethyl)phenyl)pyridin-3-yl)-7-fluoro-3,4-dihydroisoquinolin-1(2H)-one]"
15,0.1 to 10 nM,"CN(C)Cc1cc(-c2cc(-c3cc4c(F)c[nH]c(=O)c4cc3F)c(N)nc2F)ccc1N1CCOCC1 [I-561, 6-(2-amino-5-(3-((dimethylamino)methyl)-4-morpholinophenyl)-6-fluoropyridin-3-yl)-4,7-difluoroisoquinolin-1(2H)-one]"
16,0.1 to 10 nM,"CN(C)Cc1cc(-c2cc(-c3cc4c(F)c[nH]c(=O)c4cc3F)c(N)nc2F)ccc1C1CCOCC1 [I-562, 6-(2-amino-5-(3-((dimethylamino)methyl)-4-(tetrahydro-2H-pyran-4-yl)phenyl)-6-fluoropyridin-3-yl)-4,7-difluoroisoquinolin-1(2H)-one]"
17,11 to 100 nM,"CO[C@@H]1CCN(Cc2cc(-c3cc(-c4ccc5c(c4)CCNC5=O)c(N)nc3F)ccc2N2CCOCC2)C1 [I-563, (R)-6-(2-amino-6-fluoro-5-(3-((3-methoxypyrrolidin-1-yl)methyl)-4-morpholinophenyl)pyridin-3-yl)-3,4-dihydroisoquinolin-1(2H)-one]"
18,11 to 100 nM,"CO[C@@H]1CCN(Cc2cc(-c3cc(-c4cc5c(cc4F)C(=O)NCC5)c(N)nc3F)ccc2N2CCOCC2)C1 [I-564, (R)-6-(2-amino-6-fluoro-5-(3-((3-methoxypyrrolidin-1-yl)methyl)-4-morpholinophenyl)pyridin-3-yl)-7-fluoro-3,4-dihydroisoquinolin-1(2H)-one]"
19,0.1 to 10 nM,"CO[C@H]1CCN(Cc2cc(-c3cc(-c4ccc5c(c4)CCNC5=O)c(N)nc3F)ccc2N2CCOCC2)C1 [I-565, (S)-6-(2-amino-6-fluoro-5-(3-((3-methoxypyrrolidin-1-yl)methyl)-4-morpholinophenyl)pyridin-3-yl)-3,4-dihydroisoquinolin-1(2H)-one]"
20,0.1 to 10 nM,"CO[C@H]1CCN(Cc2cc(-c3cc(-c4cc5c(cc4F)C(=O)NCC5)c(N)nc3F)ccc2N2CCOCC2)C1 [I-566, (S)-6-(2-amino-6-fluoro-5-(3-((3-methoxypyrrolidin-1-yl)methyl)-4-morpholinophenyl)pyridin-3-yl)-7-fluoro-3,4-dihydroisoquinolin-1(2H)-one]"
21,0.1 to 10 nM,"Cc1cc2cc(-c3cc(-c4ccc(N5CCN(CCCC(F)F)CC5)cc4)c(F)nc3N)cc(F)c2c(=O)[nH]1 [I-567, 6-(2-amino-5-(4-(4-(4,4-difluorobutyl)piperazin-1-yl)phenyl)-6-fluoropyridin-3-yl)-8-fluoro-3-methylisoquinolin-1(2H)-one]"
22,0.1 to 10 nM,"CC(=O)N1CCC(Oc2ccc(-c3cc(-c4ccc5c(c4)CCNC5=O)c(N)nc3F)cc2CN(C)C)CC1 [I-568, 6-(5-(4-((1-acetylpiperidin-4-yl)oxy)-3-((dimethylamino)methyl)phenyl)-2-amino-6-fluoropyridin-3-yl)-3,4-dihydroisoquinolin-1(2H)-one]"
23,11 to 100 nM,"CC(=O)N1CCC(Oc2ccc(-c3cc(-c4cc5c(cc4F)C(=O)NCC5)c(N)nc3F)cc2CN(C)C)CC1 [I-569, 6-(5-(4-((1-acetylpiperidin-4-yl)oxy)-3-((dimethylamino)methyl)phenyl)-2-amino-6-fluoropyridin-3-yl)-7-fluoro-3,4-dihydroisoquinolin-1(2H)-one]"
24,0.1 to 10 nM,"CC(C)N1CCN(c2ccc(-c3cc(-c4cc5c(Cl)c[nH]c(=O)c5cn4)c(N)nc3F)cc2)CC1 [I-570, 6-(2-amino-6-fluoro-5-(4-(4-isopropylpiperazin-1-yl)phenyl)pyridin-3-yl)-4-chloro-2,7-naphthyridin-1(2H)-one]"
25,0.1 to 10 nM,"Cc1c[nH]c(=O)c2c(F)cc(-c3cc(-c4ccc(N5CCN(C(C)C)CC5)cc4)c(F)nc3N)cc12 [I-571, 6-(2-amino-6-fluoro-5-(4-(4-isopropylpiperazin-1-yl)phenyl)pyridin-3-yl)-8-fluoro-4-methylisoquinolin-1(2H)-one]"
26,0.1 to 10 nM,"Cc1[nH]c(=O)c2cc(F)c(-c3cc(-c4ccc(N5CCN(C(C)C)CC5)cc4)c(F)nc3N)cc2c1F [I-572, 6-(2-amino-6-fluoro-5-(4-(4-isopropylpiperazin-1-yl)phenyl)pyridin-3-yl)-4,7-difluoro-3-methylisoquinolin-1(2H)-one]"
27,0.1 to 10 nM,"COCCN(C)Cc1cc(-c2cc(-c3ccc4c(c3)CCNC4=O)c(N)nc2F)ccc1C1CCOCC1 [I-573, 6-(2-amino-6-fluoro-5-(3-(((2-methoxyethyl)(methyl)amino)methyl)-4-(tetrahydro-2H-pyran-4-yl)phenyl)pyridin-3-yl)-3,4-dihydroisoquinolin-1(2H)-one]"
28,0.1 to 10 nM,"COCCN(C)Cc1cc(-c2cc(-c3cc4c(cc3F)C(=O)NCC4)c(N)nc2F)ccc1C1CCOCC1 [I-574, 6-(2-amino-6-fluoro-5-(3-(((2-methoxyethyl)(methyl)amino)methyl)-4-(tetrahydro-2H-pyran-4-yl)phenyl)pyridin-3-yl)-7-fluoro-3,4-dihydroisoquinolin-1(2H)-one]"
